One assay has as its target T1, ABCC6 WT (Homo sapiens, UniProt O95255).
T1 construct: expressed in transfected cells; host or cells: HEK-293 (transient, Lipofectamine 2000)
Kind of assay: ABCC6 WT assay: HiBit protein expression. The format is cell-based. As to conditions: HEK-293 cells transiently expressing HiBit-tagged ABCC6 WT; 24 h treatment; top concentration 20 μM; read-out: ABCC6 WT EC50, Emax. An excerpt: To assess activity against ABCC6, compounds were screened in an assay measuring protein expression, using cells transfected with cDNA encoding HiBit-tagged ABCC6 wild-type.
Described here is an assay for measuring the expression of the wild type of human ABCC6 (henceforth referred to as ABCC6 WT) and the use of this assay to measure the efficacy of compounds to increase the expression of ABCC6 WT. The assay was designed to characterize the efficacy and potency of compounds to increase the expression of ABCC6 WT by calculating an Emax and EC50 value. HEK-293 cells transiently expressing ABCC6 WT (HEK-293/ACC6 WT) were used for this assay and were cultured at 37° C. (5% CO2, humidified) in Dulbecco's Modified Eagle Medium (DMEM, Gibco product #11965-092) supplemented with 10% fetal bovine serum. For the assay, HEK-293 cells were transfected with […]/10 cm plate of cDNA encoding HiBit-tagged ABCC6 wild-type using Lipofectamine 2000 (Thermo Fisher, product #11668019). Twenty-four hours after transfection, the HEK-293/ACC6 WT cells were seeded in white/opaque 384-well plates (PerkinElmer, cat. No. 6007688) at 10,000 cells/well in 20 μl growth medium and allowed to settle for 4 hours at 37° C. (5% CO2, humidified). Compound serial dilutions are prepared in growth medium as ten times (10×) the final concentration and using a dilution factor of 2. After the four-hour incubation period, 2.2 μL of the 10× dilutions are transferred to the assay plate.
Dose response curves include ten doses with the top final concentration at 20 μM in 0.15% DMSO. Liquid handling is performed with an Integra mini96-tip head (INTEGRA). After addition of compound treatment, cells are incubated for 24 hours at 37° C. (5% CO2, humidified). After the 24-hour treatment, plates are allowed to equilibrate for 15 minutes at room temperature. Using Integra mini-96, 20 μl of HiBit lytic assay reagent (Promega, product #N3040), which is prepared according to manufacturer's instructions, is added to each well. The plates are rotated at room temperature for 10 minutes and luminescent signal is acquired using an EnVision Multimode Plate Reader (PerkinElmer).
Results are presented below in Table 4 for ABCC6 WT.
A general note: With HiBiT, luminescence reflects the tagged protein that the partner subunit can reach.

For a further assay, the target named is T2, ABCA4 P1380L (Homo sapiens, UniProt P78363, P1380L).
T2 construct: expressed in transfected cells
T2 sequence (P78363 whole entry P1380L): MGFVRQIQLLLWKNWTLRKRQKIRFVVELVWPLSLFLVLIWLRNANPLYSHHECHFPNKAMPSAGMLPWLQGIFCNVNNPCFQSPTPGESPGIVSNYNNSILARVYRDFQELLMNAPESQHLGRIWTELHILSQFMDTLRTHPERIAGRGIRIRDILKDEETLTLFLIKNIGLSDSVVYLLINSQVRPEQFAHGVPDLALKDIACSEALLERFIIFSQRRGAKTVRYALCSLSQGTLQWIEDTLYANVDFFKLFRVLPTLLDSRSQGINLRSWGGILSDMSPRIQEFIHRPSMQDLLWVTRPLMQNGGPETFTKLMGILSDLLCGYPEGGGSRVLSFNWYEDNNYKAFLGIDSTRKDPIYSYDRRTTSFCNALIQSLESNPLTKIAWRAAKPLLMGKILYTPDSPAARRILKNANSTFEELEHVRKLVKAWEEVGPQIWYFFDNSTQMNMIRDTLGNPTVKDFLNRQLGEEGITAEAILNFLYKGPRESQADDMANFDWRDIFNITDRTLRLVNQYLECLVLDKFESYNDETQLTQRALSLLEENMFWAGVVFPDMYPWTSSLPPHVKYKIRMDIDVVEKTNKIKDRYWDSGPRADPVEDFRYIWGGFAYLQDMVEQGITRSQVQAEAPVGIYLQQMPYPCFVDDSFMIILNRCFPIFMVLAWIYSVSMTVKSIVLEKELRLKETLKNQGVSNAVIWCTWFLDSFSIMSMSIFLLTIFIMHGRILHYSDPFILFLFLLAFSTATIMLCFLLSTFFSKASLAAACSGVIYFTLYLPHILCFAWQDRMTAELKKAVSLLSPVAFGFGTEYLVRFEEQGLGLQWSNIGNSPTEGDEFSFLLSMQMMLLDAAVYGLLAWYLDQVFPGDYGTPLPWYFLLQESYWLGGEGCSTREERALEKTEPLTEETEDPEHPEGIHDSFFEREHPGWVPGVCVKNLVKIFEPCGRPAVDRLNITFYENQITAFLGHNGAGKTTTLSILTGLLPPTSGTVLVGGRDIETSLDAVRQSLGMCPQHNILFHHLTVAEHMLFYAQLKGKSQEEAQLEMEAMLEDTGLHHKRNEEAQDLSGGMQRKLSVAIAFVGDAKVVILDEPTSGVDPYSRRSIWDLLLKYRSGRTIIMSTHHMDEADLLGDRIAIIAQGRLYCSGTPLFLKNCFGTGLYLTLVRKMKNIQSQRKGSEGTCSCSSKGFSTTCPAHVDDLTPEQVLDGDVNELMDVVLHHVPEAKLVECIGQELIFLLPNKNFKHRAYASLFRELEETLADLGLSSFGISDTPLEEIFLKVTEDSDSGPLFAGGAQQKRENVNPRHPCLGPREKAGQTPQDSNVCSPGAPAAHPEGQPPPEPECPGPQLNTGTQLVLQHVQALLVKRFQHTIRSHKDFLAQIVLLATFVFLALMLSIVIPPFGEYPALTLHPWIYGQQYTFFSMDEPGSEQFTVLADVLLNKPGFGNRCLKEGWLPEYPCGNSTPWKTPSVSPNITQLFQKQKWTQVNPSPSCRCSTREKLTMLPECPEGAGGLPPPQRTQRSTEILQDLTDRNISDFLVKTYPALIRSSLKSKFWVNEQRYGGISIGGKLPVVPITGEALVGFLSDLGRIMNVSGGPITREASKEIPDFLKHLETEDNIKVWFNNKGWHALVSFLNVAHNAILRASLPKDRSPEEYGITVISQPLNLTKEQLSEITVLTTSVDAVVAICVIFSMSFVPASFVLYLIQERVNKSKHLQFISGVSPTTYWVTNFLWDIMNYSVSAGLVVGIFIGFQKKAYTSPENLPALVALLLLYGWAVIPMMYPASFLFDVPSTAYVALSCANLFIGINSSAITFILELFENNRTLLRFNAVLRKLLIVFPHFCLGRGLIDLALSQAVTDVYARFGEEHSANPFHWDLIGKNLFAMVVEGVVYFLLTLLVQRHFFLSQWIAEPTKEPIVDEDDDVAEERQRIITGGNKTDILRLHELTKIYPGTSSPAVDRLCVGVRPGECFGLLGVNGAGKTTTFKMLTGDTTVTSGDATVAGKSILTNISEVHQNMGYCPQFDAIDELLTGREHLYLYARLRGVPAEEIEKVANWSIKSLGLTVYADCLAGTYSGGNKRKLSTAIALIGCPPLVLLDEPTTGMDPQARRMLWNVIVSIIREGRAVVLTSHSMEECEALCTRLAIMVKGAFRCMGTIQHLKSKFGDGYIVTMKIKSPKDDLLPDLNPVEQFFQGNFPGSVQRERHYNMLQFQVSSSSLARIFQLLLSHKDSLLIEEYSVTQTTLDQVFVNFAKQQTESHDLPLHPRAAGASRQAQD
Kind of assay: A4 correction dose-response assay: ABCA4 P1380L HiBit protein expression. As to conditions: HEK-293 cells stably expressing HiBit-tagged ABCA4 P1380L; 24 h treatment; top concentration 30 μM; read-out: ABCA4 P1380L EC50, Emax. The format is cell-based. The procedure:
Exemplary compounds were evaluated in an A4 correction dose-response assay.
To assess activity against ABCA4 P1380L, the compounds were screened in an assay measuring protein expression, using cells transfected with cDNA encoding HiBit-tagged ABCA4 P1380L. Here we describe an assay for measuring the expression of the P1380L variant of human ABCA4 (henceforth referred to as ABCA4 P1380L) and the use of this assay to measure the efficacy of compounds to increase the expression of ABCA4 P1380L. The assay was designed to characterize the efficacy and potency of compounds to increase the expression of ABCA4 P1380L by calculating an Emax and EC50 value. […] (5% CO2, humidified). […] After the four-hour incubation period, 60 nL of DMSO solutions are transferred to the assay plate.
Dose response curves include eleven doses with the top final concentration at 30 μM in 0.3% DMSO. Liquid handling is performed with ECHO 550 Acoustic Liquid Handler (Labcyte). After addition of compound treatment, cells are incubated for 24 hours at 37° C. (5% CO2, humidified). After the 24-hour treatment, plates are allowed to equilibrate to room temperature for 10 minutes. Using Dragonfly Automated Liquid Handler (TTP LabTech), 20 μl of HiBit lytic assay reagent (Promega, product #N3040), which is prepared according to manufacturer's instructions, is added to each well. The plates are rotated at room temperature for 2 minutes and incubated for 1 hour at 25° C. before luminescent signal is acquired using an EnVision Multimode Plate Reader (PerkinElmer).

T1 sequence (O95255 whole entry): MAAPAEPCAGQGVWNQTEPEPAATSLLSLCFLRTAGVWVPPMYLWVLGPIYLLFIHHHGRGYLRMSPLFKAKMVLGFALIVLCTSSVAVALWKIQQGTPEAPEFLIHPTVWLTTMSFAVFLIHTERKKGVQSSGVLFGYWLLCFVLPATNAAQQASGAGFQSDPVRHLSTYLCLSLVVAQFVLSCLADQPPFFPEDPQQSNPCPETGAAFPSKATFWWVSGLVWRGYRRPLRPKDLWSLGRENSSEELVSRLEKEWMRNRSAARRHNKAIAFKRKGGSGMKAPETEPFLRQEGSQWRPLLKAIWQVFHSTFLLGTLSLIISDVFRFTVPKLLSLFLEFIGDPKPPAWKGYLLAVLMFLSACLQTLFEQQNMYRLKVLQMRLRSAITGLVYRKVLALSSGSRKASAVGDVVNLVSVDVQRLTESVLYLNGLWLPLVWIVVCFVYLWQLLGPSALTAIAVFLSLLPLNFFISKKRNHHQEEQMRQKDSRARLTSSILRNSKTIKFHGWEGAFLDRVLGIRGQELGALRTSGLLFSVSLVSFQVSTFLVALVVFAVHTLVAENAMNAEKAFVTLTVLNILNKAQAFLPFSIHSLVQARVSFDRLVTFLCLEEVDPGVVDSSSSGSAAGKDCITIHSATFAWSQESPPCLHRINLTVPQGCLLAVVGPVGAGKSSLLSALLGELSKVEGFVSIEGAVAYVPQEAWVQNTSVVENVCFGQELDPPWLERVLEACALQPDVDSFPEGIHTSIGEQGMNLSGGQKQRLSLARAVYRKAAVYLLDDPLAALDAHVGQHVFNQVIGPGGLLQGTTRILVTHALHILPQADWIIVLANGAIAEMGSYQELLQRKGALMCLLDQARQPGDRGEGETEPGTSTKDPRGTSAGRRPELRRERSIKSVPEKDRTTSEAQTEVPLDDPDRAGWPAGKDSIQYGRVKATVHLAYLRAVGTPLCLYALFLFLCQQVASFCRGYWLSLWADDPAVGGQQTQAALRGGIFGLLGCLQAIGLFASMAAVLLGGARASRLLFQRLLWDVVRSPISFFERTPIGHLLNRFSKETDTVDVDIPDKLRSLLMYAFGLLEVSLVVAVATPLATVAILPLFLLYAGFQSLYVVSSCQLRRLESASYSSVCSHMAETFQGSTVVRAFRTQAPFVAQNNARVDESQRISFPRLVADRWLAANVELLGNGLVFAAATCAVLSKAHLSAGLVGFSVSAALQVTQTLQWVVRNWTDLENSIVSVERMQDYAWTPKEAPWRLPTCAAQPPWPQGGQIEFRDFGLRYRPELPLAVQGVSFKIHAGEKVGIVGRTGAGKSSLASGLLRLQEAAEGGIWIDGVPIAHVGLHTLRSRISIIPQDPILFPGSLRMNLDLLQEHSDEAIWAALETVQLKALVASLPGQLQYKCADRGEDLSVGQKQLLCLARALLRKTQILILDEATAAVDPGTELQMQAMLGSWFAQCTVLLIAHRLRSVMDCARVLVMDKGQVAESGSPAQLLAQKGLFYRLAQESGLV

As usually defined, the EC50 is the midpoint of the concentration-response curve. For the molecule `Cc1nc(N2CC3(COC3)C2)nc(C)c1Oc1nc(-c2cncc(C#N)c2)ccc1NS(C)(=O)=O` [Compound I-160], the half-maximal effective concentration (EC50) is 1 to 10 µM at ABCC6 WT and above 25 µM on ABCA4 P1380L.
In the case of `Cc1nc(C(F)(F)F)nc(C2CC2)c1Oc1nc(-c2cncc(C#N)c2)ccc1S(=O)(=O)Nc1cnn(C)c1` [Compound I-309], the EC50 at ABCC6 WT was 1 to 10 µM; on ABCA4 P1380L it was above 25 µM.
On to `Cc1cc(C(F)F)nc(C2CC2)c1Oc1nc(-c2cncc(C#N)c2)ccc1N(C)S(=O)(=O)C1CC1` [Compound I-134], for which the concentration for a half-maximal effect (EC50) at ABCC6 WT was 1 to 10 µM; at ABCA4 P1380L, above 25 µM.
With `CNS(=O)(=O)c1ccc(-c2cncc(C#N)c2)nc1Oc1c(C)cc(C2CC2)nc1C1CC1` [Compound I-298], the EC50 at ABCC6 WT is 1 to 10 µM; on ABCA4 P1380L, above 25 µM.
The like results for `CNS(=O)(=O)c1ccc(-c2cncc(C#N)c2)nc1Oc1nc(C)sc1C1CC1` [Compound I-312] were, in that order, below 25 µM and above 25 µM.
The like results for `Cc1cc(C(F)(F)F)nc(C2CC2)c1Oc1nc(-c2cncc(C#N)c2)ccc1S(=N)(=O)c1ccccn1` (centres unmarked) [Compound I-302] were, in that order, 10 to 25 µM and above 25 µM.
With `Cc1nc(C(F)(F)F)nc(C2CC2)c1Oc1nc(-c2cncc(C#N)c2)ccc1N(C)S(C)(=O)=O` [Compound I-142], the concentration for a half-maximal effect (EC50) at ABCC6 WT was at least 25 µM; on ABCA4 P1380L, above 25 µM.
Consider `Cc1cc(C(F)(F)F)nc(C2CC2)c1Oc1nc(-c2cncc(C#N)c2)ccc1NS(=O)(=O)C(C)C` [Compound I-141], for which the EC50 at ABCC6 WT and on ABCA4 P1380L was below 1 µM in each case.
On to `Cc1cc(C(F)(F)F)nc(C2CC2)c1Oc1nc(-c2cncc(C#N)c2)ccc1N(C)S(C)(=O)=O` [Compound I-156], for which the results for the EC50 at ABCC6 WT and at ABCA4 P1380L were at least 25 µM and below 25 µM, respectively.
In the case of `Cc1cc(C)c(Oc2nc(-c3cncc(C#N)c3)ccc2N(C)S(=O)(=O)c2cccnc2)c(C2CC2)n1` [Compound I-136], the EC50 on ABCC6 WT and at ABCA4 P1380L was 1 to 10 µM in each case.
`Cc1cc(C)c(Oc2nc(-c3ccc(C#N)nc3)ccc2NS(C)(=O)=O)c(C)n1` [Compound I-7]: the concentration for a half-maximal effect (EC50) at ABCC6 WT and on ABCA4 P1380L was below 1 µM in each case.
With `Cc1nc(C)c(Oc2nc(-c3cncc(Cl)c3)ccc2NS(C)(=O)=O)c(C2CC2)n1` [Compound I-164], the figures for the 50% effective concentration (EC50) at ABCC6 WT and at ABCA4 P1380L were below 25 µM and 1 to 10 µM, respectively.
Consider `Cc1sc(C2CC2)nc1Oc1nc(-c2cncc(C#N)c2)ccc1NS(C)(=O)=O` [Compound I-299], for which the EC50 on ABCC6 WT and at ABCA4 P1380L was below 1 µM each time.
On to `Cc1cc(C)c(Oc2nc(-c3cncc(Cl)c3)ccc2S(C)(=O)=O)c(C)c1` [Compound I-104], for which the EC50 on ABCC6 WT and on ABCA4 P1380L was 1 to 10 µM in each case.
As to `Cc1cc(C(F)(F)F)nc(C2CC2)c1Oc1nc(-c2cncc(C#N)c2)ccc1S(=O)(=O)NC1CC1` [Compound I-133], the EC50 on ABCC6 WT and on ABCA4 P1380L was below 1 µM throughout.
On to `Cc1nc(C(F)(F)F)nc(C2CC2)c1Oc1nc(-c2cncc(Cl)c2)ccc1N(C)S(C)(=O)=O` [Compound I-149], for which the figures for the concentration giving a half-maximal response (EC50) at ABCC6 WT and at ABCA4 P1380L were below 25 µM and above 25 µM, respectively.
On the same counts, the results for `Cc1cc(C)c(Oc2nc(-c3cncc(Cl)c3)ccc2S(=O)(=O)NC2CC2)c(C)c1` [Compound I-98] are below 1 µM and above 25 µM.
As for `Cc1nc(C(F)(F)F)cc(C2CC2)c1Oc1nc(-c2cncc(C#N)c2)ccc1NS(C)(=O)=O` [Compound I-155], the half-maximal effective concentration (EC50) at ABCC6 WT and at ABCA4 P1380L was below 1 µM throughout.
Take `CNS(=O)(=O)c1ccc(-c2cncc(C#N)c2)nc1Oc1c(C)nc(C(F)(F)F)nc1C1CC1` [Compound I-315]: the figures for the 50% effective concentration (EC50) on ABCC6 WT and on ABCA4 P1380L were 1 to 10 µM and above 25 µM, respectively.
On the same counts, the results for `Cc1cc(C)c(Oc2nc(-c3cncc(C#N)c3)ccc2NS(C)(=O)=O)c(C)n1` [Compound I-5] are below 1 µM and below 1 µM.
For `CNS(=O)(=O)c1ccc(-c2cncc(C#N)c2)nc1Oc1c(C)cc(C(F)F)nc1C1CC1` [Compound I-289], the results for the concentration giving a half-maximal response (EC50) at ABCC6 WT and on ABCA4 P1380L were below 1 µM and above 25 µM, respectively.
For the molecule `Cc1cc(C2CC2)nc(C2CC2)c1Oc1nc(-c2cncc(C#N)c2)ccc1NS(C)(=O)=O` [Compound I-161], the EC50 on ABCC6 WT and on ABCA4 P1380L was below 1 µM in each case.
